Reference: patent publication US20260053932A1, “COMPOUNDS AND METHODS FOR THE TARGETED DEGRADATION OF ANDROGEN RECEPTOR AND ASSOCIATED METHODS OF USE” (Arvinas Operations, Inc., priority 2020, published 2026)

Tested on: androgen receptor (AR) in LNCaP and/or VCaP cells
Test: Androgen Receptor ELISA assay (AR degradation)
Type: cell-based
Conditions: degradation of AR ELISA in LNCaP and/or VCaP cells; Table 2C; read-out: DC50 Code*
Experimental: Androgen Receptor ELISA Assay. […] The protocols used with VCaP cells are described below.
The cells were grown for a minimum of 3 days.
(2)(i) A 10× stock plate in media was made; (ii) 2.5 μL of the 1000× stock was transferred to a new 10× stock plate (use 12 channel pipet, start at A (DMSO control) work thru H. When 247.5 µL of media was added to this plate, it served as a 10× stock; (iii) made media+1 nM R1881 for making 10× stock plate; (iv) added 247.5 μL of media with 1 nM R1881 to each well of the 10× stock plate, mix.
Then 22 μL of 10× stock was added to cells and incubated for 5 hours. […] Media was aspirated, and 100 μL 1× cell lysis buffer/well was added. The cells were placed on a shaker located in a cold room for 10 minutes and shaken at speed 7. The lysate mixture was mix and 20 μL transferred to 100 μl of Diluent in ELISA plate (0.15 μg/ml-[…]). The lysate-diluent mixture was store at 4° C. overnight on a shaker located in a cold room at speed 5 (gentle swirl).
The lysate-diluent mixture was shaken for 30 minutes at 37° C. The mouse AR antibody, anti-mouse antibody, TMB, and STOP solution were allowed to come to room temperature. The 1×ELISA buffer included in kit was made and loaded in reservoir. Media from the plate was discarded, the ELISA plate was tapped hard on paper towel, and washed 4×200 μl ELISA wash buffer using a plate washer for the first three washes and an eight channel aspirator for the fourth wash to more thoroughly aspirate the solution.
Next, 100 μL/well of mouse AR detection Ab was added; the plate was covered and shaken at 37° C. for 1 hour; media was discarded from the plates, the plates tapped on a paper towel and washed four times with 200 μL ELISA wash buffer with a plate washer for the first three washes and an eight channel aspirator for the fourth wash; 100 μL/well of anti-mouse—HRP conjugated Ab (comes with the kit) was added; the plates was cover and shaken at 37° C. for 30 minutes; the TMB reagent was allowed to come to room temperature; the media from the plate was discarded, the plates tapped on paper towel, and washed four times with 200 μL ELISA wash buffer with a plate washer for the first three washes and an eight channel aspirator for the fourth wash; plates were tapped on paper towel; 100 μL TMB was added to each well and the plate shaken for 2 minutes—while watching color. STOP solution (100 μL) was added when light blue color developed.
Data was analyzed and plotted using GraphPad Prism software. Exemplary compounds of Tables 1A, 1B, and 1C were assayed and the data shown below in Tables 2A, 2B, and 2C. DC50 (nM) categories (degradation of AR ELISA in LNCaP and/or VCaP cells) of Tables 2A, 2B, and 2C are as follows: A<1 nM; 1≤B<10 nM; 10≤C<100 nM; D≥100 nM. Dmax (%) categories (degradation of AR ELISA in LNCaP and/or VCaP cells) of Table 2 are as follows: A≥70; 50≤B<70; C<50

| SMILES | DC50 |
| --- | --- |
| COCCN(CC1CCN(c2ccc(C(=O)N[C@H]3C(C)(C)[C@H](Oc4cc(C)c(C#N)c(C)c4)C3(C)C)cc2)CC1)[C@H]1C[C@H](Oc2cc3c(cc2OC)C(=O)N(C2CCC(=O)NC2=O)C3=O)C1 (mixture of isomers) [compound 170, rac-N-((1r,3r)-3-(4-cyano-3,5-dimethylphenoxy)-2,2,4,4-tetramethylcyclobutyl)-4-(4-((((1r,3r)-3-((2-(2,6-dioxopiperidin-3-yl)-6-methoxy-1,3-dioxoisoindolin-5-yl)oxy)cyclobutyl)(2-methoxyethyl)amino)methyl)piperidin-1-yl)benzamide] | < 1 nM |
| CCN(C1CCN(c2ccc(C(=O)N[C@H]3C(C)(C)[C@H](Oc4cc(C)c(C#N)c(C)c4)C3(C)C)cc2)CC1)[C@H]1C[C@H](Oc2ccc3c(c2)C(=O)N(C2CCC(=O)NC2=O)C3=O)C1 (mixture of isomers) [compound 173, rac-N-((1r,3r)-3-(4-cyano-3,5-dimethylphenoxy)-2,2,4,4-tetramethylcyclobutyl)-4-(4-(((1r,3r)-3-((2-(2,6-dioxopiperidin-3-yl)-1,3-dioxoisoindolin-5-yl)oxy)cyclobutyl) (ethyl)amino)piperidin-1-yl)benzamide] | < 1 nM |
| COc1cc(O[C@H]2C(C)(C)[C@H](NC(=O)c3ccc(N4CC(CN(C(C)C)[C@H]5C[C@H](Oc6ccc7c(c6)C(=O)N(C6CCC(=O)NC6=O)C7=O)C5)C4)cc3)C2(C)C)ccc1C#N (mixture of isomers) [compound 176, rac-N-((1r,3r)-3-(4-cyano-3-methoxyphenoxy)-2,2,4,4-tetramethylcyclobutyl)-4-(3-((((1r,3r)-3-((2-(2,6-dioxopiperidin-3-yl)-1,3-dioxoisoindolin-5-yl)oxy)cyclobutyl) (isopropyl)amino)methyl)azetidin-1-yl)benzamide] | < 1 nM |
| COc1cc(O[C@H]2C(C)(C)[C@H](NC(=O)c3cnc(N4CCC(CN(C(C)C)[C@H]5C[C@H](Oc6cccc7c6CN(C6CCC(=O)NC6=O)C7=O)C5)CC4)cn3)C2(C)C)ccc1C#N (mixture of isomers) [compound 177, rac-N-((1r,3r)-3-(4-cyano-3-methoxyphenoxy)-2,2,4,4-tetramethylcyclobutyl)-5-(4-((((1r,3r)-3-((2-(2,6-dioxopiperidin-3-yl)-1-oxoisoindolin-4-yl)oxy)cyclobutyl) (isopropyl)amino)methyl)piperidin-1-yl)pyrazine-2-carboxamide] | < 1 nM |
| Cc1cc(O[C@H]2C(C)(C)[C@H](NC(=O)c3ccc(N4CCC(O[C@H]5C[C@H](Oc6ccc7c(c6)C(=O)N(C6CCC(=O)NC6=O)C7=O)C5)CC4)cc3)C2(C)C)cc(C)c1C#N (mixture of isomers) [compound 178, N-((1r,3r)-3-(4-cyano-3,5-dimethylphenoxy)-2,2,4,4-tetramethylcyclobutyl)-4-(4-((1r,3r)-3-((2-(2,6-dioxopiperidin-3-yl)-1,3-dioxoisoindolin-5-yl)oxy)cyclobutoxy)piperidin-1-yl)benzamide] | < 1 nM |
| [2H]C([2H])([2H])OCCN(CC1CCN(c2ccc(C(=O)N[C@H]3C(C)(C)[C@H](Oc4cc(C)c(C#N)c(C)c4)C3(C)C)cc2)CC1)[C@H]1C[C@H](Oc2cc(OC([2H])([2H])[2H])c3c(c2)C(=O)N(C2CCC(=O)NC2=O)C3=O)C1 (mixture of isomers) [compound 181, rac-N-((1r,3r)-3-(4-cyano-3,5-dimethylphenoxy)-2,2,4,4-tetramethylcyclobutyl)-4-(4-((((1r,3r)-3-((2-(2,6-dioxopiperidin-3-yl)-7-(methoxy-d3)-1,3-dioxoisoindolin-5-yl)oxy)cyclobutyl)(2-(methoxy-d3)ethyl)amino)methyl)piperidin-1-yl)benzamide] | < 1 nM |
| Cc1cc(O[C@H]2C(C)(C)[C@H](NC(=O)c3ccc(N4CCC5(CC4)CN(CCOc4ccc6c(c4)C(=O)N(C4CCC(=O)NC4=O)C6=O)CCO5)cc3)C2(C)C)cc(C)c1C#N (mixture of isomers) [compound 182, rac-N-((1r,3r)-3-(4-cyano-3,5-dimethylphenoxy)-2,2,4,4-tetramethylcyclobutyl)-4-(4-(2-((2-(2,6-dioxopiperidin-3-yl)-1,3-dioxoisoindolin-5-yl)oxy)ethyl)-1-oxa-4,9-diazaspiro[5.5]undecan-9-yl)benzamide] | < 1 nM |
| Cc1cc(O[C@H]2C(C)(C)[C@H](NC(=O)c3cnc(N4CCC(CN(C(C)C)[C@H]5C[C@H](Oc6cccc7c6CN(C6CCC(=O)NC6=O)C7=O)C5)CC4)cn3)C2(C)C)cc(C)c1C#N (mixture of isomers) [compound 185, rac-N-((1r,3r)-3-(4-cyano-3,5-dimethylphenoxy)-2,2,4,4-tetramethylcyclobutyl)-5-(4-((((1r,3r)-3-((2-(2,6-dioxopiperidin-3-yl)-1-oxoisoindolin-4-yl)oxy)cyclobutyl) (isopropyl)amino)methyl)piperidin-1-yl)pyrazine-2-carboxamide] | < 1 nM |
| Cc1cc(O[C@H]2C(C)(C)[C@H](NC(=O)c3ccc(N4CCC(CN(C)[C@H]5C[C@H](Oc6ccc7c(c6)C(=O)N(C6CCC(=O)NC6=O)C7=O)C5)CC4)cc3)C2(C)C)cc(C)c1C#N (mixture of isomers) [compound 186, rac-N-((1r,3r)-3-(4-cyano-3,5-dimethylphenoxy)-2,2,4,4-tetramethylcyclobutyl)-4-(4-((((1r,3r)-3-((2-(2,6-dioxopiperidin-3-yl)-1,3-dioxoisoindolin-5-yl)oxy)cyclobutyl) (methyl)amino)methyl)piperidin-1-yl)benzamide] | < 1 nM |
| Cc1cc(O[C@H]2C(C)(C)[C@H](NC(=O)c3ccc(N4CCC(CN(CCN5CCOCC5)[C@H]5C[C@H](Oc6ccc7c(c6)C(=O)N(C6CCC(=O)NC6=O)C7=O)C5)CC4)cc3)C2(C)C)cc(C)c1C#N (mixture of isomers) [compound 188, rac-N-((1r,3r)-3-(4-cyano-3,5-dimethylphenoxy)-2,2,4,4-tetramethylcyclobutyl)-4-(4-((((1r,3r)-3-((2-(2,6-dioxopiperidin-3-yl)-1,3-dioxoisoindolin-5-yl)oxy)cyclobutyl)(2-morpholinoethyl)amino)methyl)piperidin-1-yl)benzamide] | < 1 nM |
| COc1cc(O[C@H]2C[C@H](N(C)C3CCN(c4ccc(C(=O)N[C@H]5C(C)(C)[C@H](Oc6cc(C)c(C#N)c(C)c6)C5(C)C)cc4)CC3)C2)cc2c1C(=O)N(C1CCC(=O)NC1=O)C2=O (mixture of isomers) [compound 189, rac-N-((1r,3r)-3-(4-cyano-3,5-dimethylphenoxy)-2,2,4,4-tetramethylcyclobutyl)-4-(4-(((1r,3r)-3-((2-(2,6-dioxopiperidin-3-yl)-7-methoxy-1,3-dioxoisoindolin-5-yl)oxy)cyclobutyl) (methyl)amino)piperidin-1-yl)benzamide] | < 1 nM |
| COCCN(CC1CC2(C1)CN(c1ccc(C(=O)N[C@H]3C(C)(C)[C@H](Oc4ccc(C#N)c(OC)c4)C3(C)C)cc1)C2)[C@H]1C[C@H](Oc2ccc3c(c2)C(=O)N(C2CCC(=O)NC2=O)C3=O)C1 (mixture of isomers) [compound 190, rac-N-((1r,3r)-3-(4-cyano-3-methoxyphenoxy)-2,2,4,4-tetramethylcyclobutyl)-4-(6-((((1r,3r)-3-((2-(2,6-dioxopiperidin-3-yl)-1,3-dioxoisoindolin-5-yl)oxy)cyclobutyl)(2-methoxyethyl)amino)methyl)-2-azaspiro[3.3]heptan-2-yl)benzamide] | < 1 nM |
| COc1cc(O[C@H]2C[C@H](N(C)CC3CCN(c4ccc(C(=O)N[C@H]5C(C)(C)[C@H](Oc6cc(C)c(C#N)c(C)c6)C5(C)C)cc4)CC3)C2)cc2c1C(=O)N(C1CCC(=O)NC1=O)C2=O (mixture of isomers) [compound 191, rac-N-((1r,3r)-3-(4-cyano-3,5-dimethylphenoxy)-2,2,4,4-tetramethylcyclobutyl)-4-(4-((((1r,3r)-3-((2-(2,6-dioxopiperidin-3-yl)-7-methoxy-1,3-dioxoisoindolin-5-yl)oxy)cyclobutyl) (methyl)amino)methyl)piperidin-1-yl)benzamide] | < 1 nM |
